Experimental data from patent publication US20130158112A1, “COMPOSITIONS AND METHODS FOR INHIBITING BETA AMYLOID SECRETION” (priority 2011, published 2013).

Tests used:
[1] = test system: Aβ secretion; test: Secreted total Aβ ELISA in conditioned media of H4βAPP695 wt cells; format: cell-based, human; conditions: for inhibition at 10 µM / inhibition at 30 µM: Homo sapiens, 24 h, H4βAPP695 wt cells; for inhibition at 10 µM: read-out: Total Aβ (% decrease) 10 μM Mean; for inhibition at 30 µM: read-out: Total Aβ (% decrease) 30 μM Mean; for Aβ secretion inhibiting activity (structure activity summary): in words
Description: H4βAPP695 wt cells, a human […] cell line stably transfected with a wtβAPP695 expression vector construct under the control of a CMV promoter (kindly provided by Dr. Chris Eckman from Mayo Clinic, Florida) were cultured as previously described. Twenty-four hours before drug treatment, the media was replaced with serum-free media. Cells were then incubated with drugs (dissolved in DMSO) or vehicle for 24 h for collection of conditioned media and cell lysates. For the PKC inhibitors experiment, three inhibitors were treated 30 min prior to drug challenge. Primary cortical neurons were prepared from embryonic day 18 APP and presenilin 1 (APPswe, PSEN1dE9) transgenic mice on the C57BL/6 genetic background (Jackson Laboratories, strain no. 5864) as previously described. THLE-3 human hepatoma cells (from ATCC) were plated in 24-well plates that were precoated with 10 μg/mL bovine serum albumin, 10 μg/mL fibronectin, and 30 μg/mL bovine type I collagen. The cells were grown in BEGM media (Clonetics) until confluent and treated with drugs at 20 μM for 24 h. This conditioned media was harvested, diluted 1:1 in serum-free medium, and incubated with H4βAPP695 wt cells for 24 h prior to analysis of secreted Aβ, which was compared to the effect of 10 μM drug treatments without prior incubation with the THLE-3 cells. Caco-2 cells (ATCC) were plated in 12-well plates with Transwell inserts (Costar) at 70000 cells per well and grown for 21 days. The media volume of the apical and basal chambers was 0.5 and 1.5 mL, respectively. Transepithelial resistance was measured in each well and found to be >160 Ω/cm^2. Drugs at 40 μM and 20 μg/mL of lucifer yellow were added in serum-free medium to the apical chamber. Four hours later, the basal chamber media was harvested and used to measure lucifer yellow fluorescence to confirm monolayer integrity as well as for treatment of H4βAPP695 wt cells for 24 h prior to analysis of secreted Aβ, which was compared to the effect of direct addition of 10 μM of the corresponding drug.

[2] = test system: H4βAPP695 wt cells; test: Cytotoxicity by total cell protein content (BCA) of H4βAPP695 wt cells; conditions: cytotoxicity

SMILES	inhibition at 10 µM [1] [%]	inhibition at 30 µM [1] [%]	Aβ secretion inhibiting activity (structure activity summary) [1]	Cell protein (% decrease) 10 μM Mean [2] [%]	Cell protein (% decrease) 30 μM Mean [2] [%]	melting point [°C]
N#Cc1cccc(CSCCNC(=O)c2c(Cl)cccc2Cl)c1 [Compound 38, 2,6-Dichloro-N-[2-(3-cyano-benzylsulfanyl)-ethyl]-benzamide]	20	38.7	did not yield good activity	−4.8	4.3	123 to 125
O=C(NCCSCc1cccc([N+](=O)[O-])c1)c1c(Cl)cccc1Cl [Compound 40, 2,6-Dichloro-N-[2-(3-nitro-benzylsulfanyl)-ethyl]-benzamide]	> 50	72.5	good activity	7.5	24.6	76 to 78
Nc1cccc(CSCCNC(=O)c2c(Cl)cccc2Cl)c1 [Compound 41, N-[2-(3-Amino-benzylsulfanyl)-ethyl]-2,6-dichloro-benzamide]	0.1	17	did not yield good activity	15.3	13.1	55 to 56
COc1cccc(CSCCNC(=O)c2c(Cl)cccc2OC)c1 [Compound 42, 2-Chloro-6-methoxy-N-[2-(3-methoxy-benzylsulfanyl)-ethyl]-benzamide]	-2.9	-4.7		1.9	9.3	58 to 59
CCOC(=O)c1cccc(CSCCNC(=O)c2c(Cl)cccc2Cl)c1 [Compound 43, 3-[2-(2,6-Dichloro-benzoylamino)-ethylsulfanylmethyl]-benzoic Acid Ethyl Ester]	3	10.1	did not yield good activity	5.8	5.4	43 to 45
O=C(O)c1cccc(CSCCNC(=O)c2c(Cl)cccc2Cl)c1 [Compound 44, 3-[2-(2,6-Dichloro-benzoylamino)-ethylsulfanylmethyl]-benzoic Acid]	-11.4	-3.8	did not yield good activity	7.1	3.2	165 to 166
NC(=O)c1cccc(CSCCNC(=O)c2c(Cl)cccc2Cl)c1 [Compound 45, N-[2-(3-Carbamoyl-benzylsulfanyl)-ethyl]-2,6-dichloro-benzamide]	6.2	32.3	did not yield good activity	−2.8	−8.6	148 to 150
O=C(NCCSCc1cccc(F)c1)c1c(F)cccc1F [Compound 46, 2,6-Difluoro-N-[2-(3-fluoro-benzylsulfanyl)-ethyl]-benzamide]	-16.8	-15.5		0.1	1.8	39 to 41
O=C(NCCSCc1cccc(F)c1)c1c(Cl)cccc1Cl [Compound 47, 2,6-Dichloro-N-[2-(3-fluoro-benzylsulfanyl)-ethyl]-benzamide]	10.2	36.1	did not yield good activity	2.6	3.7	70 to 72
O=Cc1cccc(CSCCNC(=O)c2c(Cl)cccc2Cl)c1 [Compound 49, 2,6-Dichloro-N-[2-(3-formyl-benzylsulfanyl)-ethyl]-benzamide]	19.9	36.4	did not yield good activity	1.5	−2.1	63 to 65
O=C(NCCSCc1cccc(C(F)(F)F)c1)c1c(Cl)cccc1Cl [Compound 50, 2,6-Dichloro-N-[2-(3-trifluoromethyl-benzylsulfanyl)-ethyl]-benzamide]		93.4	good activity	19		54 to 55
O=C(NCCSCc1cccc(Br)c1)c1c(Cl)cccc1Cl [Compound 51, N-[2-(3-Bromo-benzylsulfanyl)-ethyl]-2,6-dichloro-benzamide]		90.1	good activity	12.3	38.6	74 to 76
O=C(NCCSCc1cccc(Cl)c1)c1c(Br)cccc1Br [Compound 54, 2,6-Dibromo-N-[2-(3-chloro-benzylsulfanyl)-ethyl]-benzamide]		83.4	maintained activity	6.7	20.8	55 to 57
O=C(NCCSCc1cccc(Br)c1)c1c(Br)cccc1Br [Compound 55, 2,6-Dibromo-N-[2-(3-bromo-benzylsulfanyl)-ethyl]-benzamide]		87.3	maintained activity	9.8	23.9	70 to 72
O=C(NCCSCc1cc(O)cc(O)c1)c1c(Cl)cccc1Cl [Compound 59, 2,6-Dichloro-N-[2-(3,5-dihydroxy-benzylsulfanyl)-ethyl]-benzamide]	3.1	17.2	lost activity	−0.4	−0.7	55 to 57
COc1cc(CSCCNC(=O)c2c(Cl)cccc2Cl)cc(OC)c1 [Compound 60, 2,6-Dichloro-N-[2-(3,5-dimethoxy-benzylsulfanyl)-ethyl]-benzamide]	47.9	80.4	could be tolerated	2	−8.7	46 to 47
N#Cc1c(Cl)cccc1CSCCNC(=O)c1c(Cl)cccc1Cl [Compound 62, 2,6-Dichloro-N-[2-(3-chloro-2-cyano-benzylsulfanyl)-ethyl]-benzamide]	48.7	52.3		3.5	1.3	166 to 168
O=C(NCCSCc1cccc(Cl)c1)c1ccccc1 [Compound 63, N-[2-(3-Chloro-benzylsulfanyl)-ethyl]-benzamide]	0.3	10.7	not well tolerated	2.4	−4.5	75 to 76
O=C(NCCS(=O)(=O)Cc1cccc(Cl)c1)c1c(Cl)cccc1Cl [Compound 66, 2,6-Dichloro-N-[2-(3-chloro-phenylmethanesulfonyl)-ethyl]-benzamide]	8.9	9.3	No tested substitutions in the linker region were well tolerated	−2.2	−3.8	156 to 158
O=C(NCCSCc1cccc(Cl)c1)c1c(F)cccc1F [Compound 67, N-[2-(3-Chloro-benzylsulfanyl)-ethyl]-2,6-difluoro-benzamide]	4.9	21.6	not well tolerated	5.1	8.1	41 to 43
O=C(NC1CC1)c1cccc(CSCCNC(=O)c2c(Cl)cccc2Cl)c1 [Compound 68, 2,6-Dichloro-N-[2-(3-cyclopropylcarbamoyl-benzylsulfanyl)-ethyl]-benzamide]	1.9	11	did not yield good activity	0	−1	42 to 43
